Read-outs that look alike come from different tables or passages of the source.
Experiments:
[1] = tested on: NCI-H1975 (expressing EGFR L858R/T790M double-mutant gene); assay: Cancer cell growth, Cell Titer-Glo, 72 h: NCI-H1975; type: cell-based; conditions: Homo sapiens
Source text: (§1) Compounds of the present invention were further evaluated for their selectivity in inhibiting proliferation of cancer cells by testing effects of the novel kinase inhibitors on proliferation of cancer cells. In the examples the following cells were selected: human non-small cell lung cancer cell NCI-H1975 (expressing EGFR L858R/T790M double-mutant gene), human-derived non-small cell lung cancer cell PC-9 (expressing EGFR delE746_A750 mutant gene), human-derived non-small cell lung cancer cell HCC827 (expressing EGFR delE746_A750 mutant gene), human lung adenocarcinoma cell HCC4006 (expressing EGFR delE746_A750 mutant gene), human non-small cell lung cancer cell NCI-H3255 (expressing EGFR L858R mutant gene), human skin squamous carcinoma cell A431 (expressing wild-type EGFR gene), human non-small cell lung cancer cell A549 (expressing wild-type EGFR gene), human non-small cell lung cancer cell NCI-H460 (expressing wild-type EGFR gene), human non-small cell lung cancer cell NCI-H2122 (expressing wild-type EGFR gene), Chinese hamster ovary (CHO) cell (Cricetulus griseus, hamster, Chinese, ovary), Chinese hamster lung cell (CHL), mouse pro-B cell BaF3. The cells above were all purchased from (USA).
(§2) The cells were incubated for 72 h, and then the number of viable cells was determined via quantitative determination with a microplate reader by using Cell Titer-Glo® (Promega, the USA) Luminescent Cell Viability Assay kit.

[2] = tested on: PC-9 (expressing EGFR delE746_A750 mutant gene); assay: Cancer cell growth, Cell Titer-Glo, 72 h: PC-9; type: cell-based; conditions: Homo sapiens
Source text: as §1, §2

[3] = tested on: HCC827 (expressing EGFR delE746_A750 mutant gene); assay: Cancer cell growth, Cell Titer-Glo, 72 h: HCC827; type: cell-based; conditions: Homo sapiens
Source text: as §1, §2

[4] = tested on: NCI-H3255 (expressing EGFR L858R mutant gene); assay: Cancer cell growth, Cell Titer-Glo, 72 h: NCI-H3255; type: cell-based; conditions: Homo sapiens
Source text: as §1, §2

[5] = tested on: A431 (expressing wild-type EGFR gene); assay: Cancer cell growth, Cell Titer-Glo, 72 h: A431; type: cell-based; conditions: Homo sapiens
Source text: as §1, §2

[6] = tested on: A549 (expressing wild-type EGFR gene); assay: Cancer cell growth, Cell Titer-Glo, 72 h: A549; type: cell-based; conditions: Homo sapiens
Source text: as §1, §2

[7] = tested on: NCI-H460 (expressing wild-type EGFR gene); assay: Cancer cell growth, Cell Titer-Glo, 72 h: NCI-H460; type: cell-based; conditions: Homo sapiens
Source text: as §1, §2

mouse pro-B cell BaF3 = assay: Cell growth, Cell Titer-Glo, 72 h: BaF3; type: cell-based
Source text: as §1, §2

[8] = tested on: BaF3-TEL-EGFR (stably expressing wild-type EGFR kinase); assay: Cell growth, Cell Titer-Glo, 72 h: BaF3-TEL-EGFR; type: cell-based; conditions: Mus musculus
Source text: (§3) In addition, this example further uses: mouse BaF3-TEL-EGFR (stably expressing wild-type EGFR kinase), mouse BaF3-TEL-EGFR-L858R (stably expressing EGFR L858R mutant kinase), mouse BaF3-TEL-EGFR-T790M (stably expressing EGFR T790M mutant kinase), mouse BaF3-FL-EGFR-DeI19 (stably expressing EGFR delE746_A750 mutant kinase), mouse BaF3-FL-EGFR-T790M-L858R (stably expressing EGFR T790M/L858R mutant kinase), mouse BaF3/P210 (stably expressing bcr/abl˜(P210) mutant kinase), mouse BaF3-TEL-ABL-T315I (stably expressing ABLT315I mutant kinase), mouse BaF3-FLT3-ITD (stably expressing FLT3/ITD mutant kinase), mouse BaF3-TEL-JAK2 (stably expressing JAK2 kinase), mouse BaF3-TEL-JAK3 (stably expressing JAK3 kinase), mouse BaF3-TPR-MET (stably expressing MET kinase), mouse BaF3-TEL-BLK (stably expressing BLK kinase), mouse BaF3-TEL-ABL (stably expressing ABL kinase), mouse BaF3-TEL-BMX (stably expressing BMX kinase), mouse BaF3-TEL-ALK (stably expressing ALK kinase). The above cell lines were all constructed by our laboratory according to the following method: the kinase region sequences of human […], EGFR L858R, EGFR T790M, EGFR delE746_A750, EGFR T790M/L858R, bcr/abl˜(P210), ABL T315I, FLT3/ITD, JAK2, JAK3, MET, BLK, ABL, BMX, ALK were amplified respectively by PCR, inserted respectively into MSCV-Puro vectors harboring N-terminal fragment and/or NPM fragment and/or TPR fragment (Clontech), then the vectors were stably transfected into mouse BaF3 cells by retrovirus methods and growth factor IL-3 was removed, eventually obtaining cell lines that are transferred protein (EGFR, EGFR L858R, EGFR T790M, EGFR delE746_A750, EGFR T790M/L858R, bcr/abl˜(P210), ABL T315I, FLT3/ITD, JAK2, JAK3, MET, BLK, ABL, BMX, ALK)-dependent.
as §2

[9] = tested on: BaF3-TEL-EGFR-L858R (stably expressing EGFR L858R mutant kinase); assay: Cell growth, Cell Titer-Glo, 72 h: BaF3-TEL-EGFR-L858R; type: cell-based; conditions: Mus musculus
Source text: as §3, §2

[10] = tested on: BaF3-TEL-EGFR-T790M (stably expressing EGFR T790M mutant kinase); assay: Cell growth, Cell Titer-Glo, 72 h: BaF3-TEL-EGFR-T790M; type: cell-based; conditions: Mus musculus
Source text: as §3, §2

[11] = tested on: NCI-H2122 (expressing wild-type EGFR gene); assay: Cancer cell growth, Cell Titer-Glo, 72 h: NCI-H2122; type: cell-based; conditions: Homo sapiens, NCI-H2122 cells
Source text: as §1, with “The cells above were all purchased from (USA).” left out
as §2

[12] = tested on: BaF3-FL-EGFR-T790M-L858R (stably expressing EGFR T790M/L858R mutant kinase); assay: Cell growth, Cell Titer-Glo, 72 h: BaF3-FL-EGFR-T790M-L858R; type: cell-based; conditions: Mus musculus, BaF3-FL-EGFR-T790M-L858R cells
Source text: as §3, §2

[13] = tested on: EGFR and signaling proteins in A549, H1975, PC-9, H3255 and HCC827 cells; assay: Effect on cell signaling pathways (phosphorylation of EGFR and downstream proteins); type: cell-based, human; conditions: A549, H1975, PC-9, H3255, HCC827 cells; 4 hour-treatment; 0.01-3 μM
[14] = tested on: BaF3-FL-EGFR-Del19 (stably expressing EGFR delE746_A750 mutant kinase); assay: Cell growth, Cell Titer-Glo, 72 h: BaF3-FL-EGFR-Del19; type: cell-based; conditions: Mus musculus, BaF3-FL-EGFR-Del19 cells
Source text: In addition, this example further uses: mouse BaF3-TEL-EGFR (stably expressing wild-type EGFR kinase), mouse BaF3-TEL-EGFR-L858R (stably expressing EGFR L858R mutant kinase), mouse BaF3-TEL-EGFR-T790M (stably expressing EGFR T790M mutant kinase), mouse BaF3-FL-EGFR-DeI19 (stably expressing EGFR delE746_A750 mutant kinase), mouse BaF3-FL-EGFR-T790M-L858R (stably expressing EGFR T790M/L858R mutant kinase), mouse BaF3/P210 (stably expressing bcr/abl˜(P210) mutant kinase), mouse BaF3-TEL-ABL-T315I (stably expressing ABLT315I mutant kinase), mouse BaF3-FLT3-ITD (stably expressing FLT3/ITD mutant kinase), mouse BaF3-TEL-JAK2 (stably expressing JAK2 kinase), mouse BaF3-TEL-JAK3 (stably expressing JAK3 kinase), mouse BaF3-TPR-MET (stably expressing MET kinase), mouse BaF3-TEL-BLK (stably expressing BLK kinase), mouse BaF3-TEL-ABL (stably expressing ABL kinase), mouse BaF3-TEL-BMX (stably expressing BMX kinase), mouse BaF3-TEL-ALK (stably expressing ALK kinase). […]
as §2

[15] = NCI-H1975 cells, 72 h, read-out: GI50
[16] = PC-9 cells, 72 h, read-out: GI50
[17] = HCC827 cells, 72 h, read-out: GI50
[18] = NCI-H3255 cells, 72 h, read-out: GI50
[19] = A-431, A431 cells, 72 h, read-out: GI50
[20] = A549 cells, 72 h, read-out: GI50
[21] = NCI-H460 cells, 72 h, read-out: GI50
[22] = BaF3 cells, 72 h, read-out: GI50
[23] = BaF3-TEL-EGFR cells, read-out: GI50
[24] = BaF3-TEL-EGFR-L858R cells, read-out: GI50
[25] = BaF3-TEL-EGFR-T790M cells, read-out: GI50

GI50 [1, 15]	GI50 [2, 16]	GI50 [3, 17]	GI50 [4, 18]	GI50 [5, 19]	GI50 [6, 20]	GI50 (mouse pro-B cell BaF3; [22])	GI50 [8, 23]	GI50 [9, 24]	GI50 [10, 25]	GI50 [12]	Structure (SMILES)	further results
											C=CC(=O)Nc1cc(Nc2nccc(-c3cn(C)c4ccccc34)n2)c(OC)cc1N(C)CCN(C)C [AZD9291, reference compound]	GI50 ([1]; NCI-H1975, 72 h): […]; GI50 ([2]; PC-9, 72 h): 3 nM; GI50 ([3]; HCC827, 72 h): 4 nM; GI50 ([4]; NCI-H3255, 72 h): 31 nM; GI50 ([5]; A-431, 72 h): […]; GI50 ([6]; A549, 72 h): 5000 nM; GI50 ([7]; NCI-H460, 72 h): 4000 nM; GI50 (mouse pro-B cell BaF3; BaF3, 72 h): 2700 nM; GI50 [8]: 1800 nM; GI50 [9]: 1.7 nM; GI50 [10]: 22 nM
440 nM	130 nM	97 nM	250 nM	1200 nM	830 nM	970 nM	2800 nM	6.3 nM	130 nM		C=CC(=O)Nc1cccc(Nc2nc(Nc3ccc(N4CCN(C(C)=O)CC4)cc3OC)ncc2C(F)(F)F)c1 [CO-1686, reference compound]	GI50 [7, 21]: 2500 nM
53 nM	28 nM	38 nM	28 nM	17 nM	3700 nM	4100 nM	13 nM	< 0.3 nM		< 0.3 nM	C=CC(=O)N1CC[C@@H](n2nc(-c3ccc(OCc4cccc(F)c4)c(Cl)c3)c3c(N)ncnc32)C1 [Compound 4, (R)-1-(3-(4-amino-3-(3-chloro-4-((3-fluorobenzyl)oxy)phenyl)-1H-pyrazolo[3,4-d]pyrimidin-1-yl)pyrrolidin-1-yl)prop-2-en-1-one]	GI50 [11]: 130 nM
80 nM	11 nM	39 nM	23 nM		4300 nM	7400 nM	2800 nM		< 0.3 nM		C=CC(=O)N1CCC[C@@H](n2nc(-c3ccc(OCc4ccccc4)c(F)c3)c3c(N)ncnc32)C1 [Compound 12, (R)-1-(3-(4-amino-3-(4-(benzyloxy)-3-fluorophenyl)-1H-pyrazolo[3,4-d]pyrimidin-1-yl)piperidin-1-yl)prop-2-en-1-one]	
17 nM	2 nM	16 nM	15 nM		7000 nM	5100 nM	2800 nM		< 0.3 nM		C=CC(=O)N1CCC[C@@H](n2nc(-c3ccc(OCc4cccc(F)c4)c(F)c3)c3c(N)ncnc32)C1 [Compound 13, (R)-1-(3-(4-amino-3-(3-fluoro-4-((3-fluorobenzyl)oxy)phenyl)-1H-pyrazolo[3,4-d]pyrimidin-1-yl)piperidin-1-yl)prop-2-en-1-one]	
< 0.3 nM	35 nM	36 nM	27 nM	> 10000 nM	> 10000 nM	> 10000 nM	5400 nM	< 0.3 nM	< 0.3 nM	6 nM	C=CC(=O)N1CCC[C@@H](n2nc(-c3ccc(OCc4cccc(C)n4)c(Cl)c3)c3c(N)ncnc32)C1 [Compound 29, (R)-1-(3-(4-amino-3-(3-chloro-4-((6-methylpyridin-2-yl)methoxy)phenyl)-1H-pyrazolo[3,4-d]pyrimidin-1-yl)piperidin-1-yl)prop-2-en-1-one]	GI50 [7, 21]: 4000 nM; phosphorylation of EGFR protein [13]: strongly inhibit; phosphorylation of proteins such as AKT308, eIF4E, P70S6K and ERK downstream of EGFR [13]: significant effect
1200 nM	1000 nM	1600 nM	3700 nM	2600 nM		1900 nM	1300 nM				C=CC(=O)Nc1cc(Cn2nc(-c3ccc(F)c(Cl)c3)c3c(N)ncnc32)ccc1N(C)CCN(C)C [Compound 40]	
2700 nM	3200 nM	3900 nM	> 10000 nM	9000 nM	> 10000 nM	9200 nM	3700 nM	940 nM	1100 nM	1700 nM	CCC(=O)N1CCC[C@@H](n2nc(-c3ccc(OCc4cccc(F)c4)c(Cl)c3)c3c(N)ncnc32)C1 [Compound 51, (R)-1-(3-(4-amino-3-(3-chloro-4-((3-fluorobenzyl)oxy)phenyl)-1H-pyrazolo[3,4-d]pyrimidin-1-yl)piperidin-1-yl)propan-1-one]	GI50 [11]: 3900 nM; GI50 [14]: 1200 nM

Reference: patent US10781214B2, “Kinase inhibitor against wild-type and mutant EGFR” (PRECEDO PHARMACEUTICALS CO., LTD, priority 2015, dated 2020)
